Results from US6825205B2 (priority 2002, dated 2004).

Tests used:
[1] = rat, in vivo
in vivo = settings: Sprague-Dawley, rat, ip, 10 mg/kg
[2] = target: μ opioid receptor (μ membrane protein) (Homo sapiens, UniProt P35372); assay: biochemical
Chain of μ opioid receptor (μ membrane protein) (P35372 whole entry, species assumed): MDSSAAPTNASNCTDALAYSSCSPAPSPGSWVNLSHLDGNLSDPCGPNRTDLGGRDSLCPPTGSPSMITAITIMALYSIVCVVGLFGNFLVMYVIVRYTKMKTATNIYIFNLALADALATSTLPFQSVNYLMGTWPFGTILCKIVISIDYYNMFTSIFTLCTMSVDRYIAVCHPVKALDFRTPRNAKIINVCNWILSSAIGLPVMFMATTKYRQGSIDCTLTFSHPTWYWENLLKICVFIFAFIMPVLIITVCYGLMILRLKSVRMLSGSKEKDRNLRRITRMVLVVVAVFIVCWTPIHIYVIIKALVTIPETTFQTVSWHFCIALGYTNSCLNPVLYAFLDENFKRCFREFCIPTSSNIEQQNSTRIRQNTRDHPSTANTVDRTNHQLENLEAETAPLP

## C[N+]1(C)CC[C@]23c4c5ccc(O)c4O[C@H]2C(=O)CC[C@H]3[C@H]1C5 [N-methylhydromorphone, N-methylhydromorphonium iodide]
[1]
  Penetration of the CNS / blood-brain barrier: does not penetrate the CNS
In vivo
  Kp: 0.02 ± 0.01
[2]
  EC50: 817 ± 83 nM
  GTP-γ-S Activity/Efficacy % DAMGO: 29 ± 1 % DAMGO
